Experimental data from US12721835B2, “Anticoccidial composition comprising violacein, and use thereof” (CJ CHEILJEDANG CORPORATION, priority 2020, dated 2026).

Columns and labels:
Eimeria acervulina = test: Protozoan (sporozoite) direct killing effect; type: cell-based; conditions: tested 1 to 500 ppm, vs PBS control
Protocol: (§1) In the present example, protozoan (sporozoite) direct killing ability evaluation was conducted against 3 representative Eimeria kinds known to be infected in most farms (E. tenella, E. acervulina, E. maxima).
(§2) A certain amount of oocysts of each coccidial protozoan was put in a tube containing glass beads and pulverized, and then to remove the crushed oocyst cell wall and other debris, internal sporocysts were purified using the percoll density gradient, and washed with PBS solution. A reagent comprising sodium taurocholic acid (Sigma aldrich, USA) and trypsin (Gibco, USA), respectively, was treated to sporocysts of Eimeria tenella, Eimeria acervulina and Eimeria maxima for excystation of the internal sporozoites, and they were incubated, and then they were washed with PBS solution once and the protozoa were obtained.
(§3) After reacting the violacein and anticoccidial agents, salinomycin, diclazuril and gallic acid (hereinafter, material) with 3 kinds of Eimeria protozoa at various concentrations of 1 to 500 ppm, respectively, only alive protozoa (sporozoites) were counted through microscopic observation. […]

Eimeria tenella [1] = test: Protozoan (sporozoite) direct killing effect; type: cell-based; conditions: tested 1 to 500 ppm, vs PBS control
Protocol: as §1, §2, §3

[2] = system: Eimeria tenella, Eimeria acervulina, and Eimeria maxima; test: In vivo anticoccidial activity upon complex inoculation of 3 kinds of protozoa (broilers, formulated feed); parameters: Oocyst index: scale not given here; conditions: 3 kinds infection; for Lesion index: lesion score x 10; for ACI: out of 200 points; for Lesion score: sum of duodenum, jejunum and appendix; for RWG(%): vs non-infected negative control
Protocol: An in vivo anticoccidial efficacy evaluation test was performed in an animal experiment facility in Chungcheongnam-do, South Korea. One-day-old male Ross broilers were individually weighed and randomly divided into groups to use in an experiment. Matters and conditions for experimental design were described in Table 5.
(§4) A breeding farm was managed according to the Korean poultry breeding management guidelines. Cages and the breeding farm were cleaned and disinfected before starting the test. The temperature of […] and the humidity of 40 to 50% of the breeding farm were maintained, and it was continuously monitored.
The feed was mixed in Neobase, and each material (salinomycin (Cheilbio Cheilsalino-60 product), violacein (CJ Cheiljedang)) was added to the feed, respectively, at a concentration described in Table 6 below to be self-mixed. Antibiotics and supplements were not used in general feed and mixed feed, and no anticoccidial agent other than each material was added. Broilers were fed ad libitum throughout the experiment period. After putting 8 1-day-age broilers in cages randomly placed for each of the control group or test group and breeding, general feed (Al-choi product) was fed for 7 days, and then the mixed feed prepared above was ingested by dividing by control group or test group.
The feed formulation administered to the control group (negative control group or positive control group) and test group and whether coccidiosis was induced by three kinds of protozoa were described in Table 6 below.
Coccidiosis induction was performed by oral inoculation (challenge inoculation) in an oral tube type of 10,000, 50,000, 50,000 oocysts (eggs) with over 90% mature (sporulation) Eimeria tenella, Eimeria acervulina, and Eimeria maxima per one individual to 14-day-old broilers.
The anticoccidial efficacy by test group designed in Example 2-2 above was shown as an anticoccidial index (ACI), and the anticoccidial index was calculated by the similar method to Example 1-3 above. However, in the present example, the protozoa of Eimeria tenella, Eimeria acervulina, and Eimeria maxima were challenge inoculated, so the lesion score was calculated by summing the scores for each of the duodenum, jejunum and appendix, respectively, differently from Example 1-3.

Eimeria tenella [3] = test: In vivo anticoccidial activity upon single inoculation (broilers, formulated feed); parameters: key to ACI: ACI out of 200 = survival% + RWG% − lesion×10 − oocyst index; conditions: Eimeria tenella infection; for Lesion score: appendix, scale 0-4, 8th day; for Oocyst excretion amount/g: feces day 6-8; for Lesion index: lesion score x 10; for ACI: out of 200 points; for Survival rate after challenge inoculation (%): up to 8th day; for RWG(%): vs non-infected negative control
Protocol: An in vivo anticoccidial efficacy evaluation test was performed in an animal experiment facility in Gyeongsangnam-do, South Korea. One-day-old female Ross broilers were individually weighed and randomly divided into groups to use in an experiment. Matters and conditions for experimental design were described in Table 2.
as §4
For the feed, Korea Feed Al-choi product was used, and each material (diclazuril (Yuhan Corporation YUHAN DICLA product), salinomycin (Cheil Bio Cheilsalino-60 product), violacein (CJ Cheiljedang)) was added to the feed, respectively, at a concentration described in Table 3 below to be self-mixed. Antibiotics and supplements were not used in general feed and mixed feed, and no anticoccidial agent other than each material was added. Broilers were fed ad libitum throughout the experiment period. After putting 15 1-day-age broilers in cages randomly placed for each of the control group or test group and breeding, general feed (Al-choi product) was fed for 7 days, and then the mixed feed prepared above was ingested by dividing by control group or test group. The non-infected negative control group used 1cage, and the infected negative control group and experimental group used 2cage to progress the experiment.
The feed formulation administered to the control group (negative control group or positive control group) and test group and whether coccidiosis was induced by Eimeria tenella were described in Table 3 below.
14-day-old broilers were orally inoculated with 10,000 oocysts (90% sporulated Eimeria tenella oocysts) per individual to induce coccidiosis.
The anticoccidial efficacy by test group designed in Example 1-2 above was shown as an anticoccidial index (ACI), and the anticoccidial index was calculated by Equation 2 below. The ACI score is out of 200 points, and the higher the ACI score, the more excellent the anticoccidial ability, and when it is 120 points or more to less than 140 points, it is determined that it is effective as an anticoccidial material, and when it is 140 points or more to less than 160 points, it is determined that it is excellent as an anticoccidial material, and when it is 160 points or more, it is determined that the anticoccidial effect is very excellent (Luis Miguel De Pablos et al., Anticoccidial activity of maslinic acid against infection with Eimeria tenella in chickens, Parasitol Res, 2010). Anticoccidial index (ACI)=(survival rate after challenge inoculation(%))+(daily weight gain compared to negative control group (RWG,%))−(lesion score×10)−(fecal oocyst excretion amount index) (Equation 2) • 1) Survival rate: the number of dead individuals was recorded daily, and post mortem autopsy was performed to determine a cause of mortality, and the number of individuals who died due to causes other than coccidiosis was excluded. The survival rate (%) up to the 8th day after challenge inoculation was used for anticoccidial index calculation. The measured survival rate was described in Table 4 below. • 2) Daily weight gain: body weight was measured for each cage before challenge inoculation with a protozoan into an individual and at the 7th day after challenge inoculation, and the difference was divided by the number of days to calculate the daily weight gain (ADG, g/d). ‘Daily weight gain compared to the negative control group (RWG, %)’ which was calculated by dividing the daily weight gain (ADG, average daily gain; g/d) of each experimental group by the weight gain (ADG, g/d) of the non-infected negative control group and multiplying by 100 was used for anticoccidial index calculation. […]

CC[C@@H](C(=O)[C@@H](C)[C@@H](O)[C@H](C)[C@@H]1O[C@@H]([C@@H](CC)C(=O)O)CC[C@@H]1C)[C@H]1O[C@]2(C=C[C@@H](O)[C@]3(CC[C@@](C)([C@H]4CC[C@](O)(CC)[C@H](C)O4)O3)O2)[C@H](C)C[C@@H]1C [Salinomycin, salinomycin, reference compound]
Minimum concentration for killing 50% protozoa (sporozoites) (ppm) (Eimeria acervulina): 250 ppm | Minimum concentration for killing 50% protozoa (sporozoites) (ppm) (Eimeria tenella [1]): 500 ppm | ADG(g/d) after challenge inoculation ([2]; feed 60 ppm): 46.6 g/day | Oocyst excretion amount/g ([2]; feed 60 ppm): 540000 g⁻¹ | Oocyst index ([2]; feed 60 ppm): 20.0 | Survival rate after challenge inoculation (%) ([2]; feed 60 ppm): 100% | Lesion index ([2]; feed 60 ppm): 55 | ACI ([2]; feed 60 ppm): 130 | Lesion score ([2]; feed 60 ppm): 5.5 | RWG(%) ([2]; feed 60 ppm): 105.1% | ADG(g/d) after challenge inoculation (Eimeria tenella [3]; feed 60 ppm): 56 g/day | Oocyst index (Eimeria tenella [3]; feed 60 ppm): 10 | Lesion score (Eimeria tenella [3]; feed 60 ppm): 2.6 | Oocyst excretion amount/g (Eimeria tenella [3]; feed 60 ppm): 1.3e+08 g⁻¹ | Lesion index (Eimeria tenella [3]; feed 60 ppm): 26 | ACI (Eimeria tenella [3]; feed 60 ppm): 139 | Survival rate after challenge inoculation (%) (Eimeria tenella [3]; feed 60 ppm): 87% | RWG(%) (Eimeria tenella [3]; feed 60 ppm): 88%

O=C1N=c2ccccc2=C1c1cc(-c2c[nH]c3ccc(O)cc23)[nH]c1O [Violacein, 3-(2-(5-Hydroxyindol-3-yl)-5-oxo-2-pyrrolin-4-ylidene)-2-indolinone]
Minimum concentration for killing 50% protozoa (sporozoites) (ppm) (Eimeria acervulina): 3.9 ppm | Minimum concentration for killing 50% protozoa (sporozoites) (ppm) (Eimeria tenella [1]): 0.63 ppm | ADG(g/d) after challenge inoculation ([2]; feed 10 ppm): 40.4 g/day | Oocyst excretion amount/g ([2]; feed 10 ppm): 680000 g⁻¹ | Oocyst index ([2]; feed 10 ppm): 31.4 | Survival rate after challenge inoculation (%) ([2]; feed 10 ppm): 100% | Lesion index ([2]; feed 10 ppm): 51 | ACI ([2]; feed 10 ppm): 109 | Lesion score ([2]; feed 10 ppm): 5.1 | RWG(%) ([2]; feed 10 ppm): 91.1% | ADG(g/d) after challenge inoculation ([2]; feed 15 ppm): 45.2 g/day | Oocyst excretion amount/g ([2]; feed 15 ppm): 380000 g⁻¹ | Oocyst index ([2]; feed 15 ppm): 15.7 | Survival rate after challenge inoculation (%) ([2]; feed 15 ppm): 100% | Lesion index ([2]; feed 15 ppm): 31 | ACI ([2]; feed 15 ppm): 155 | Lesion score ([2]; feed 15 ppm): 3.1 | RWG(%) ([2]; feed 15 ppm): 102.0% | ADG(g/d) after challenge inoculation ([2]; feed 20 ppm): 42.1 g/day | Oocyst excretion amount/g ([2]; feed 20 ppm): 1.56e+06 g⁻¹ | Oocyst index ([2]; feed 20 ppm): 22.9 | Survival rate after challenge inoculation (%) ([2]; feed 20 ppm): 100% | Lesion index ([2]; feed 20 ppm): 40 | ACI ([2]; feed 20 ppm): 132 | Lesion score ([2]; feed 20 ppm): 4.0 | RWG(%) ([2]; feed 20 ppm): 95% | ADG(g/d) after challenge inoculation (Eimeria tenella [3]; feed 10 ppm): 60 g/day | Oocyst index (Eimeria tenella [3]; feed 10 ppm): 10 | Lesion score (Eimeria tenella [3]; feed 10 ppm): 2.1 | Oocyst excretion amount/g (Eimeria tenella [3]; feed 10 ppm): 1.3e+08 g⁻¹ | Lesion index (Eimeria tenella [3]; feed 10 ppm): 21 | ACI (Eimeria tenella [3]; feed 10 ppm): 162 | Survival rate after challenge inoculation (%) (Eimeria tenella [3]; feed 10 ppm): 100% | RWG(%) (Eimeria tenella [3]; feed 10 ppm): 94% | ADG(g/d) after challenge inoculation (Eimeria tenella [3]; feed 40 ppm): 58 g/day | Oocyst index (Eimeria tenella [3]; feed 40 ppm): 10 | Lesion score (Eimeria tenella [3]; feed 40 ppm): 2.7 | Oocyst excretion amount/g (Eimeria tenella [3]; feed 40 ppm): 9e+07 g⁻¹ | Lesion index (Eimeria tenella [3]; feed 40 ppm): 27 | ACI (Eimeria tenella [3]; feed 40 ppm): 145 | Survival rate after challenge inoculation (%) (Eimeria tenella [3]; feed 40 ppm): 90% | RWG(%) (Eimeria tenella [3]; feed 40 ppm): 91%
